Measurements taken from patent US11518805B2, “Binding inhibitor between TCTP dimer type IgE-dependent histamine releasing factor and receptor thereof, and use thereof” (EWHA UNIVERSITY—INDUSTRY COLLABORATION FOUNDATION, priority 2014, dated 2022).
“Also recorded” adds a separate entry of the source.

Tests used:
[1] = tested on: asthma and rhinitis animal models induced with ovalbumin; experiment: FL and H2 domain peptides in ovalbumin-induced asthma and rhinitis animal models; assay type: in vivo, BALB/c female mice
Del-N11dTCTP = biological target: T1, Del-N11dTCTP (Rattus norvegicus, UniProt P63029); experiment: Inhibition of Del-N11dTCTP-induced IL-8 secretion by domain peptides in BEAS-2B cells; assay type: cell-based; conditions: Del-N11dTCTP 70 nM, peptide molar ratios 0~1, 24 hours, ELISA
T1 construct: made in house
T1 sequence (P63029 11-172 limits assumed): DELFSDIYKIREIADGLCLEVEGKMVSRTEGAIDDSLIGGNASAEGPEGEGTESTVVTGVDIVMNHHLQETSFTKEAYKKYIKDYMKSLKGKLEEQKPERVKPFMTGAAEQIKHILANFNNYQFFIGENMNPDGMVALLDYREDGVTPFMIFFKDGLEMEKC
Experimental: To investigate inhibitory effect of FL domain, Helix 2 domain, and Helix 3 domain on Del-N11dTCTP, the inventors synthesized FL domain (Ac-[…]-NH2) (SEQ. ID. NO: 1), Helix 2 domain (Ac-[…]-NH2) (SEQ. ID. NO: 11), and Helix 3 domain (Ac-[…]-NH2) (SEQ. ID. NO: 22) by using the synthetic peptides prepared with NH2-terminal acetylation and COOH-terminal amidation, followed by purification.
Particularly, BEAS-2B cells were treated with Del-N11dTCTP (70 nM) by the same manner as described in Experimental Example 1. At this time, the synthesized FL domain, Helix 2 domain, and Helix 3 domain were treated to the cells at different molar ratios (0˜1), followed by reaction for 30 minutes. Then, Del-N11dTCTP was added thereto. 24 hours later, the supernatant was obtained and the released IL-8 was quantified by ELISA.

[2] = tested on: asthma and rhinitis animal models induced with ovalbumin; experiment: FL and H2 domain peptides in ovalbumin-induced asthma and rhinitis animal models; assay type: in vivo, BALB/c female mice; conditions: for inflammatory cells in bronchoalveolar lavage fluid (total cell number, leukocyte number) / level of IL-5 in bronchoalveolar lavage fluid: 20 mg/kg intraperitoneal, vs positive control (PBS)
Experimental: Particularly, 5 week old specific pathogen free BALB/c female mice (weight: approximately 20 g) were purchased from Orientbio Inc. (Seoul, Korea), followed by stabilization in an animal laboratory for 1 week. The mice were administered with 200 ? of PBS containing 1.3 mg of aluminum hydroxide (Sigma A8222) and 100 μg of ovalbumin (Sigma A5503) via intraperitoneal injection twice at a week interval, followed by sensitization. Then, 20 ? of PBS containing 200 μg of ovalbumin dissolved therein was administered via intranasal instillation on day 14, day 16, and day 18 to induce immune response. PBS was administered for the positive control and FL and H2 domains and the antisera or antibodies thereof were administered via intraperitoneal injection 10 minutes before antigen administration. On day 15, day 17, and day 19, intraperitoneal administration was performed without antigen administration. On day 19, the animals were sacrificed 2 hours after the administration (FIG. 16). 50 μg of anti-C terminus IgG was administered via intranasal instillation or intraperitoneal injection 30 minutes before the antigen administration on day 14, day 16, and day 18. 24 hours after the last administration, the animals were sacrificed (FIG. 26). The asthma and rhinitis models constructed in Example 7 were treated with FL and H2 domain at the concentration of 20 mg/kg in order to investigate whether or not those two HRF receptor binding domains could suppress pathophysiological lesion of asthma and rhinitis. Particularly, after cardiac blood collection in the animal model constructed in Example 7, bronchoalveolar lavage was performed. The airway was opened and a 20-gauge intravascular tube catheter was inserted through the opened airway, through which 0.8 ml of PBS containing 2% FBS was slowly injected three times and then recovered. The recovery rate was at least 80% and the recovered washing solution was centrifuged at 4° C. for 15 minutes at 1,000×g. The obtained supernatant was used for the detection of cytokine such as IL-5 or for the detection of TCTP protein. In the meantime, the precipitate was resuspended in 100 ? of PBS containing 2% FBS. The number of the inflammatory cells infiltrated in the washing solution was counted by using HEMAVET 950FS (Drew Scientific). Particularly, upon completion of the experiment in Example 7, the mixture of zoletil (250 mg/kg) and rompun (50 mg/kg) was administered to the mouse via intraperitoneal injection to sacrifice the animal. 0.7˜0.8 mL of blood was collected from the heart and placed in a heparinized tube. The blood sample stood at room temperature for 30 minutes˜1 hour, followed by centrifugation at 1,000×g for 15 minutes to obtain plasma. The level of ovalbumin-specific IgE in the plasma was measured by ELISA. 100 μg of ovalbumin was dissolved in 0.05 M carbonate buffer (pH 9.6), which was distributed in a 96-well ELISA plate, followed by coating at 4° C. for overnight. Non-specific reaction was blocked by reacting the plate with TBS containing 1% BSA at room temperature for 30 minutes. The plasma sample was diluted (1:100), followed by reaction at room temperature for 1 hour, which was then washed with TBS containing 0.1% Tween-20. The […] anti-mouse IgE (SouthernBiotech) was diluted (1:8000), followed by reaction at room temperature for 1 hour. Then, the mixture was washed. TMB was treated thereto at room temperature. 10 minutes later, the reaction was terminated by adding 0.2 M H2SO4. Then, OD450 was measured with an ELISA reader. Particularly, bronchoalveolar lavage fluid was collected from the asthma and rhinitis animal models constructed in Example 7. The chest was dissected and the lung was extracted, which was washed with 4° C. PBS. The lung was cut to the appropriate size. Some of the lung pieces were fixed in PBS containing 4% paraformaldehyde (PFA) at room temperature via o/n fixation. […]

Row | Substance | IL-5 secretion in bronchoalveolar lavage fluid ([1]; 1 mg/kg) | inflammatory cells infiltrated in bronchoalveolar lavage fluid, dose dependence ([1]; 1 mg/kg and 20 mg/kg) | level of ovalbumin-specific IgE in plasma, dose dependence ([1]; various concentrations (1 and 20 mg/kg)) | inhibition of IL-8 secretion induced by Del-N11dTCTP (Del-N11dTCTP) | inflammatory cells in bronchoalveolar lavage fluid (total cell number, leukocyte number) [2] | level of IL-5 in bronchoalveolar lavage fluid [2] | level of ovalbumin-specific IgE in plasma ([2]; 20 mg/kg, ELISA, vs positive control) | number of total cells and level of lymphocytes in bronchoalveolar lavage fluid ([2]; 20 mg/kg, p<0.01) | level of TCTP dimer (approximately 45 kDa) in bronchoalveolar lavage fluid, immunoblotting ([2]; vs positive control) | phospho-IκBα in lung tissue, immunoblotting ([2]; vs positive control)
1 | Ac-SRTEGAIDDSLIGGNASAEGPEGEGTESTVVT-NH2 [FL domain, ID; NO: 1] | could inhibit IL-5 secretion | reduced FL domain dose-dependently | reduced by the treatment of FL domain dose-dependently | inhibited IL-8 secretion better than Helix 3 domain; also recorded: inhibited more strongly | significantly lower | reduced | reduced | significantly reduced | reduced | decreased
2 | Ac-TKEAYKKYIKDYMKSLKGKLEEQKP-NH2 [Helix 2 domain, ID; NO: 11] | – | – | – | inhibited IL-8 secretion better than Helix 3 domain; also recorded: inhibited more strongly | decreased | reduced | – | – | – | –
